Columns and labels:
[1] = system: wheat stem base rot disease; experiment: Field control experiment on wheat stem base rot disease (seed coating); assay type: in vivo, wheat variety Quanmai 725
Description: Experiments employed 20% cyclobutrifluram·ipconazole suspension seed coating agent in example 1 of formulation implementation and 45% cyclobutrifluram suspension seed coating agent, 20% ipconazole suspension seed coating agent, and 15% carbendazim·thiram suspension seed coating agent. Experimental site was located at Liu Lake Farm in Suixi County using the wheat variety “Quanmai 725”. The agent was applied to seeds at a 1:1000 ratio by weight for seed coating. Additionally, the agent was diluted into a solution, with a final volume of 1 liter of solution used to treat 100 kg of wheat seeds, which were then dried in the shade before direct planting. Disease investigations were conducted during the tillering stage and after the growth of wheat entered the jointing-booting stage (Table 3).

[2] = system: Fusarium solani; experiment: Indoor toxicity determination, mycelial growth assay on PDA medium; assay type: cell-based; details: mycelial growth inhibition, 25° C., soybean Fusarium solani
Description: (§1) A detailed analysis of the fungicidal properties of cyclobutrifluram and ipconazole was conducted. First, the EC50 ([…]) of the two single compounds (hereinafter referred to as agents) was determined. According to the EC50 of the two single agents, the combination ratio of the two agents was set according to the Wadley method, and based on the Wadley synergistic coefficient SR value.
(§2) The experimental targets were Fusarium pseudogramineaqum and Fusarium solani. The cyclobutrifluram and ipconazole were selected, and the PDA solid medium were selected, and the required liquid chemicals plates were prepared at about 18 ml per plate. The mycelium blocks with 5 mm diameter were prepared at the edge of pre cultured colonies using a sterilized punch, transferred to different culture media plates, and cultivated at 25° C. The experiment used the mycelial growth assay method to prepare drug containing culture media according to different treatments. The mycelium blocks with 5 mm diameter were prepared at the edge of pre cultured colonies using a sterilized punch and transferred to different culture media plates with different drug contents. The colony diameter was measured using the cross over method, and the colony diameter (mm) was measured. The growth inhibition rate was calculated using the following formula: […]
(§3) The mycelial growth inhibition rate was converted to the inhibition probability value (y), and the drug concentration was converted to the concentration logarithm (x). The concentration logarithm was used as the x-axis and the probability value was used as the y-axis to create a toxicity regression line. The toxicity regression equation of a single agent of cyclobutrifluram and ipconazole and a mixed agent of cyclobutrifluram and ipconazole against the pathogen were obtained, and the EC50 value and correlation coefficient r were calculated.
(§4) According to the Wadley method to evaluate the interaction of the mixed agent, the calculation formula is as follows: […]
(§5) Among them, a and b are the proportions of each component in the mixed agent, and the SR value is used to analyze the mixing effect. If SR≤0.5, the mixed agent of the two drugs has an antagonistic effect; if SR=0.5-1.5, the mixed agent of the two drugs has an additive effect; if SR≥1.5, the mixed agent of the two drugs has a synergistic effect.

[3] = system: Fusarium pseudogramineaqum; experiment: as above; assay type: cell-based; details: mycelial growth inhibition, 25° C., wheat Fusarium pseudogramineaqum
Description: as §1, §2, §3, §4, §5

SMILES: O=C(NC1CCC1c1ccc(Cl)cc1Cl)c1cccnc1C(F)(F)F (stereo not drawn) [Cyclobutrifluram]
- control effect on wheat stem base rot disease (in words) [1]: significant control effect
- EC50 [2]: 0.3774 ppm
- EC50 [3]: 0.3033 ppm

SMILES: CC(C)C1CCC(Cc2ccc(Cl)cc2)C1(O)Cn1cncn1 (stereo not drawn) [Ipconazole, (1RS,2SR,5RS;1RS,2SR,5SR)-2-(4-chlorobenzyl)-5-isopropyl-1-(1H-1,2,4-triazol-1-ylmethyl)cyclopentanol]
- control effect on wheat stem base rot disease (in words) [1]: significant control effect
- EC50 [2]: 0.1808 ppm
- EC50 [3]: 0.1506 ppm
